In paper PMC10846240, “Pharmacokinetic/pharmacodynamic integration of amphenmulin: a novel pleuromutilin derivative against Mycoplasma gallisepticum” (Microbiology Spectrum, 2023):
Values after ≈ are worked out from the molar mass of the structure shown. Values joined by “and” are separate entries in the source; they are usually repeats but may differ in a detail not shown here. Equal entries are not always repeated. Where two headings read alike, the source gives them in different places.

Legend:
[1] = In vivo pharmacokinetics of amphenmulin in chickens (IV, IM, PO); details: for Cmax: mean ± SD, n = 10; for bioavailability: read-out: F (absolute bioavailability)
Experimental: The M. gallisepticum standard strain S6 was obtained from the National Center for Veterinary Culture Collection (Beijing, China). Amphenmulin (98%) was synthesized by our laboratory according to the published methods ([10]). Acetonitrile and all other liquid chemicals used were purchased from Macklin Biochemical Technology Co., Ltd (Shanghai, China). M. gallisepticum in this study was cultured under standard conditions of 37°C with the following nutrients: swine serum, M. gallisepticum artificial medium base from Qingdao Hope Biological Technology Co., Ltd (Qingdao, China), nicotinamide adenine dinucleotide (NADH) and cysteine from Aladdin Biochemical Technology Co., Ltd (Shanghai, China). Thirty healthy adult yellow-feathered broilers weighing 1.58 to 2.04 kg were used in this study, caged, fed without antibiotics and anticoccidial drugs, and watered and fed ad libitum. All animal experimental procedures were approved by the Animal Ethics Committee of South China Agricultural University (Approval number: 2023a015).
In this study, the dose design for the administration of amphenmulin was mainly based on the previous study report on tiamulin ([15]). The chickens were randomly divided into three groups (10 per group) and given a single dose of 20 mg/kg of body weight (bw.) of amphenmulin via intravenous, intramuscular injection, and oral gavage, respectively. Blood samples were collected from the brachial wing vein of each chicken at 0, 5, 10, 15, 30, 45 min, 1, 2, 3, 4, 6, 8, 10, 12, 24 h after intravenous injection, and at 0, 3, 6, 9, 12, 20, […], 45 min, 1, 2, 4, 8, 12, 24 h after oral and intramuscular administrations. The blood samples were centrifuged at 3,500 rpm for 10 min. The plasma was collected and stored at −20°C until analysis.
After the plasma samples were restored to room temperature, 200 µL was taken and vortexed with 800 µL of acetonitrile, centrifuged at 12,000 rpm for 10 min. The supernatant was filtered through a 0.22-µm filter and analyzed using a high-performance liquid chromatography-tandem mass spectrometry (HPLC-MS/MS) system (Agilent 1200 HPLC and Applied Biosystem API4000 mass spectrometer, ABI Sciex, USA). Amphenmulin was separated on a C18 column (150 mm × 2 mm, 5 µm) at a flow rate of 0.5 mL/min, with a mobile phase of 0.1% aqueous formic acid and acetonitrile (40:60, vol/vol). The electrospray ionization (ESI) source of the mass spectrometer was operated in positive ion mode for multi-reaction monitoring, with the following ion source parameters: ion spray voltage 4,500 V, collision gas 5 psi, ion source gas1 50 psi, ion source gas2 55 psi, curtain gas 20 psi, source temperature 400°C.
Additionally, the plasma concentration–time data of amphenmulin in each individual were further analyzed using the non-compartmental method in Phoenix 8.1 (Certara, USA) to calculate pharmacokinetic parameters, in which the area under the curve (AUC) was calculated using the log-linear trapezoidal method, and the results were reported as mean ± standard deviation (SD).

[2] = system: M. gallisepticum S6 strain; assay: Susceptibility assay, agar dilution (MIC, MIC99, MPC); assay type: cell-based, Mycoplasma gallisepticum; parameters: MPC: unit not given here
Experimental: The minimum inhibitory concentration (MIC) of amphenmulin against M. gallisepticum S6 strain was determined with reference to the protocols previously reported ([16], [17]). The broth microdilution method was performed using 96-well plates to achieve a final titer of approximately 10^7 colony-forming units (CFU)/mL of M. gallisepticum in each well. The final concentrations tested of amphenmulin ranged from 0.488 × 10^−3 to 0.125 µg/mL. Concurrently, a growth control (without drug), an end-point control (blank medium), and a sterile control (sterile broth) were also implemented. […] For the agar dilution method, M. gallisepticum was inoculated and cultured on agar plates containing a twofold dilution series of amphenmulin concentrations, and the MIC was the lowest drug concentration that inhibited growth. Additionally, following the procedure of broth microdilution, the initial culture before incubation and the samples from wells where the color remained unchanged after 48 h of incubation were subjected to 10-fold serial dilutions. Each dilution sample (10 µL) was then plated on drug-free agar for colony counting.
We also determined the minimum concentration inhibiting colony formation by 99% (MIC99) of amphenmulin against the S6 strain by slightly modifying the existing methods ([18], [19]). […] By counting the colony growth of M. gallisepticum inoculated on these drug-containing agar plates and performing linear regression with drug concentration, we calculated the amphenmulin concentration that inhibits 99% growth of the S6 strain.
Furthermore, we determined the mutant prevention concentration (MPC) of amphenmulin against the S6 strain by agar dilution method ([20]). Briefly, M. gallisepticum at exponential phase was enriched to ≥10^9 CFU/mL by centrifugation and cultured as described above. The lowest drug concentration that inhibited mycoplasma growth in the agar plate was determined as the primary MPC (MPCpr), and the determination was repeated after linearly reducing the MPCpr to 0.5 MPCpr at 10% drug concentration. The final mycoplasma-free growth concentration was the MPC. All the experiments of the above pharmacodynamic studies were conducted in triplicate.

[3] = yellow-feathered broilers, plasma, 20 mg/kg bw., IM
[4] = yellow-feathered broilers, plasma, 20 mg/kg bw., IV
[5] = yellow-feathered broilers, plasma, 20 mg/kg bw., PO
[6] = Mycoplasmoides gallisepticum, S6STRAIN

Compound: C=C[C@]1(C)C[C@@H](OC(=O)CSc2ccccc2N)[C@]2(C)[C@H](C)CC[C@]3(CCC(=O)[C@H]32)[C@@H](C)[C@@H]1O [amphenmulin, 22-(2-amino-phenylsulfanyl)-22-deoxypleuromutilin]
- T1/2Ke ([1]; 20 mg/kg bw., IM): 5.50 ± 1.43 h
- T1/2Ke ([1]; 20 mg/kg bw., IV, 20 mg/kg): 2.13 h and 2.13 ± 0.63 h
- T1/2Ke ([1]; 20 mg/kg bw., PO): 2.60 ± 0.87 h
- oral absorption rate constant (Ka) ([1]; oral, residual method): approximately 3.15 1/h
- Tmax ([1]; yellow-feathered broilers, chicken, plasma, other: oral and intramuscular, 20 mg/kg bw., two extravascular routes (oral and intramuscular), read-out: time to peak levels after administration): < 0.5 h
- AUC(0-inf) [1, 3]: 9850 ± 2720 ng·h/mL
- AUC(0-t) [1, 3]: 9160 ± 2650 ng·h/mL
- MRT [1, 3]: 7.89 ± 2.75 h
- k el [1, 3]: 3.61e-05 s⁻¹
- Cmax [1, 3]: 1930 ± 480 ng/mL
- bioavailability [1, 3]: 52.1%
- Tmax ([1]; yellow-feathered broilers, plasma, 20 mg/kg bw., IM, read-out: Tmax): 0.38 ± 0.2 h
- AUC(0-inf) [1, 4]: 18900 ± 6030 ng·h/mL
- AUC(0-t) [1, 4]: 18800 ± 6090 ng·h/mL
- MRT [1, 4]: 3.13 ± 1.05 h
- clearance [1, 4]: 19.5 mL/min/kg
- k el [1, 4]: 9.72e-05 s⁻¹
- Vd ([1]; yellow-feathered broilers, plasma, 20 mg/kg bw., IV, read-out: Vss): 3.64 ± 1.58 L/kg
- AUC(0-inf) [1, 5]: 1110 ± 430 ng·h/mL
- AUC(0-t) [1, 5]: 1060 ± 400 ng·h/mL
- MRT [1, 5]: 2.98 ± 1.05 h
- k el [1, 5]: 8.06e-05 s⁻¹
- Cmax [1, 5]: 730 ± 360 ng/mL
- bioavailability [1, 5]: 5.88%
- Tmax ([1]; yellow-feathered broilers, plasma, 20 mg/kg bw., PO, read-out: Tmax): 0.25 ± 0.11 h
- MPC relative to MIC99 [2]: about 6.5 times
- MIC [2, 6]: 7.8 ng/mL (≈ 0.0161 µM)
- MIC99 [2, 6]: 7.7 ng/mL (≈ 0.0159 µM)
- MPC ([2]; agar dilution, inoculum 10^9 CFU/mL): 0.0500
- mutation selection window (MSW) ([2]; between MIC99 and MPC): 0.77 × 10^−2–0.05 µg/mL
